Literature values, collected in patent US7476665B2, “Benzodiazepine CGRP receptor antagonists” (Merck & Co., Inc., priority 2003, dated 2009).
Where two headings read alike, the source gives them in different places. Where no end group is shown, it is not given here.

How the values were obtained:
[1] = system: facial blood flow; details: marmoset, electrical stimulation of the trigeminal ganglion (Doods et al. 2000)
[2] = system: facial blood flow; details: rat, trigeminal ganglion stimulation (Escott et al. 1995)
[3] = system: middle meningeal artery; details: rats, electrical stimulation of the dura mater, prior administration (Williamson et al. 1997)

Compound	effect on increase of facial blood flow [1]	effect on increase of facial blood flow [2]	effect on increase of middle meningeal artery diameter [3]
NCCCC[C@H](NC(=O)[C@@H](Cc1cc(Br)c(O)c(Br)c1)NC(=O)N1CCC(N2Cc3ccccc3NC2=O)CC1)C(=O)N1CCN(c2ccncc2)CC1 [BIBN4096BS]	blocked		
CGRP(8-37): a peptide CGRP antagonist (VTHRLAGLLSRSGGVVKNNFVPTNVGSKAF; ends and bridges not checked; UniProt P06881 90-119, looked up, fragment)		inhibited	blocked
